The target of test [1] is T1, PCSK9 (Homo sapiens, UniProt Q8NBP7). Particulars: clinical trials, compared to placebo (Elbitar 2016); cited from earlier work.
Target sequence in this assay (Q8NBP7 153-692): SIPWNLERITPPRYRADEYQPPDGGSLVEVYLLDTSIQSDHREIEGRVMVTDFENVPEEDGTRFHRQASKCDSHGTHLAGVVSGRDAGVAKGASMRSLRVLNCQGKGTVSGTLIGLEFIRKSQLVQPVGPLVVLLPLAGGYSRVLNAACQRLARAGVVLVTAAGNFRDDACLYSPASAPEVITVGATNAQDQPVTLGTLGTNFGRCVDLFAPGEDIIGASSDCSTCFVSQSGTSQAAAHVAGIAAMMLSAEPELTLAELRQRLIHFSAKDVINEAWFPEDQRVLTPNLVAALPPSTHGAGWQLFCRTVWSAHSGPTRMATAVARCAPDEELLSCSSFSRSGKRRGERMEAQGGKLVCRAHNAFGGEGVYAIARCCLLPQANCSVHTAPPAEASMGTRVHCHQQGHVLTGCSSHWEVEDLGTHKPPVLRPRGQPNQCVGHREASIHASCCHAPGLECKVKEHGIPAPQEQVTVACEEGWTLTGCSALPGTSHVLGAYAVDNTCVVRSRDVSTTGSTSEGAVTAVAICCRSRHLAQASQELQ
The target of test [2] is T2, potassium ion channel hERG (human Ether-á-go-go-Related Gene) (Homo sapiens, UniProt Q12809).
T2 construct: expressed in transfected cells; host or cells: Chinese hamster ovary K1 (CHO)
In words: Assay 5 - hERG assay (SyncroPatch 384PE patch clamp, CHO cells). In kind it is cell-based. As to conditions: geometric mean, CHO cells over-expressing hERG, read-out: Assay 5 (hERG Hu CHO IF EPh CR-Syncro) GMean IC50. A digest of the protocol: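 Automated whole-cell patch clamp at room temperature on CHO-K1 cells over-expressing hERG, using K-fluoride/escin internal solution (pH 7.2) and NMDG-containing external solution (pH 7.4). Compounds were tested in a 6-point cumulative format, 0.33% final DMSO. Wells accepted only with seal >30 MegaOhm, Z′>0.4 and current >0.2 nA.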

The target in test [3] is T1, PCSK9. In words: Assay 2 - Biophysical human PCSK9 assay (SPR, Biacore). Also noted: biotinylated human PCSK9 (31-692)-Avi-His6. Particulars: geometric mean; SPR single-cycle kinetics, 30° C.; read-out: Assay 2 (PCSK9 BIAcore DBA CR) GMean Kd. In kind it is binding. The method, then: The SPR binding experiments were performed on a Biacore S200 optical biosensor unit at 30° C. A Series S Sensor Chip SA that is designed to bind biotinylated molecules for interaction analysis in Biacore systems was equilibrated at room temperature prior to use. The running buffer for protein tethering and subsequent ligand binding experiments was 10 mM HEPES pH 7.4, 150 mM NaCl, 0.05% (v/v) Tween 20 pH 7.4.
For the surface tethering of PCSK9, biotinylated human PCSK9 (31-692)-Avi-His6 at a concentration of 0.5 mg/mL was used. Prior to the surface tethering, the surface was exposed to a solution of 50 mM NaOH, 500 mM NaCl via 3 consecutive injections of this solution with a contact time of 60 s and a flowrate of 10 μL min- to remove non-conjugated streptavidin. The PCSK9 protein was diluted to a concentration of 20 μg/mL using running buffer and injected with a contact time of 180-300 s and a flowrate of 10 μL min^−1 over a single flow channel (typically flow channel 2 or flow channel 4) with the aim to achieve protein capture levels of >5000 response units (RU). Remaining biotin binding sites were blocked via 2 consecutive injections of a 10 μM D-biotin solution in running buffer with a contact time of 60 s and a flowrate of 10 μL min^−1 over all flow-channels.
The binding experiments were all performed at a flow rate of 30 μL min^−1 and by employing the method of single-cycle kinetics. This approach involves the sequential injection of a compound concentration series without regeneration steps. A contact time between 90-150 s was selected, which was followed by a 40 min dissociation phase to allow for a proper estimation of the dissociation rate constant. Test compounds were delivered in DMSO at a concentration of 10 mM and a digital dispenser HP D300 was used to set up the compound concentration series using 6 concentrations. The tested concentrations have been 30, 100, 300, 1000, 3000 and 10000 nM. Prior to injecting any compound, the surfaces were equilibrated by injecting running buffer over them in three separate pulses. The data collection rate was set to 10 Hz.
The raw sensorgrams of the compound injections were first subjected to reference subtraction (subtracting the signal from flow channel 1 and/or 3 from the signal from channels 2 and/or 4 respectively) and then blank subtraction (subtracting the signal from injecting DMSO controls from the reference subtracted data). The resulting double-referenced sensorgrams were then fitted using a 1:1 binding interaction model using the manufactures software package to extract kinetic- and affinity data.
For orientation: In SPR one partner is held on a chip, and binding of the other changes the refractive index at the surface.
Target sequence in this assay (Q8NBP7 31-692): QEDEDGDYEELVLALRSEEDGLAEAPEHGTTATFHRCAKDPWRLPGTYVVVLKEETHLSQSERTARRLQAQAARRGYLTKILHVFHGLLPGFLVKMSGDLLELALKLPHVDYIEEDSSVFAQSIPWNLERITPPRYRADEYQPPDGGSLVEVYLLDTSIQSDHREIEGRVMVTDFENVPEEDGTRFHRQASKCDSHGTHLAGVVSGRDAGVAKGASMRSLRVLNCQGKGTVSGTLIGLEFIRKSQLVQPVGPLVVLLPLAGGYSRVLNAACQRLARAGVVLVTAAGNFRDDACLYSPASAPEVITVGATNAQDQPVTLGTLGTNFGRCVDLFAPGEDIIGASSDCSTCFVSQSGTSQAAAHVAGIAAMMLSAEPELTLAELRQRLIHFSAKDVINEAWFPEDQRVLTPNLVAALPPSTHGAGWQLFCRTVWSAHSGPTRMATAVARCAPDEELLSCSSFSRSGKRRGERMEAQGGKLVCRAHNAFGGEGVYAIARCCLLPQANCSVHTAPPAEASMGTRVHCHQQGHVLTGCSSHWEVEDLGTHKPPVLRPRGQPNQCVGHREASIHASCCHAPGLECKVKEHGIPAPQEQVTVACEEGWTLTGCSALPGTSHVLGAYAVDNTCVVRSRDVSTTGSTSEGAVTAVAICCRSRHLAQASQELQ

The target of test [4] is GSK3b (Glycogen synthase kinase-3 beta) (Homo sapiens, UniProt P49841). In words: Assay 6 - GSK3b assay (ThermoFisher, FRET Z-Lyte). In kind it is biochemical. Particulars: geometric mean; ATP Conc: 10.000 μM; read-out: Assay 6 (GSK3B FRET-Z-Lyte CR) GMean IC50 (μM) ATP Conc: 10.000. A digest of the protocol: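 Z-Lyte FRET kinase assay: 0.22-0.92 ng GSK3β with 2 μM Ser/Thr 09 peptide in 50 mM HEPES pH 7.5, 10 mM MgCl2, 1 mM EGTA, 0.01% BRIJ-35, 60 min at room temperature, then 60 min development. Compounds in 1% DMSO, 10-point 3-fold dilutions from 10 μM; sigmoidal dose-response fit.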
Chain of GSK3b (Glycogen synthase kinase-3 beta) (P49841 whole entry): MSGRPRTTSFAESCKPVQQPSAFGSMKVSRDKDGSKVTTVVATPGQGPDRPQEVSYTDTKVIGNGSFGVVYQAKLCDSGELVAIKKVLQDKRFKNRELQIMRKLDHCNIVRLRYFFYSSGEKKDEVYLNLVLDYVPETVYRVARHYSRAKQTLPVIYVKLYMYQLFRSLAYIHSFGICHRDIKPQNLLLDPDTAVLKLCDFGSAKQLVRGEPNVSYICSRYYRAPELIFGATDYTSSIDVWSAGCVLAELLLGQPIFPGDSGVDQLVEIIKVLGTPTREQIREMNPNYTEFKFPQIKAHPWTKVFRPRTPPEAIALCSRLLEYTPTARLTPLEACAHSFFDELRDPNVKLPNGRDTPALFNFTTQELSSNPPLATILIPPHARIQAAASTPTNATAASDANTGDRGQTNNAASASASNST

Test [5] addresses T3, PCSK9 (Homo sapiens, UniProt Q8NBP7, G670E/V474I). Briefly: biochemical.
Target sequence in this assay (Q8NBP7 with tags, fused parts or gaps V474I/G670E): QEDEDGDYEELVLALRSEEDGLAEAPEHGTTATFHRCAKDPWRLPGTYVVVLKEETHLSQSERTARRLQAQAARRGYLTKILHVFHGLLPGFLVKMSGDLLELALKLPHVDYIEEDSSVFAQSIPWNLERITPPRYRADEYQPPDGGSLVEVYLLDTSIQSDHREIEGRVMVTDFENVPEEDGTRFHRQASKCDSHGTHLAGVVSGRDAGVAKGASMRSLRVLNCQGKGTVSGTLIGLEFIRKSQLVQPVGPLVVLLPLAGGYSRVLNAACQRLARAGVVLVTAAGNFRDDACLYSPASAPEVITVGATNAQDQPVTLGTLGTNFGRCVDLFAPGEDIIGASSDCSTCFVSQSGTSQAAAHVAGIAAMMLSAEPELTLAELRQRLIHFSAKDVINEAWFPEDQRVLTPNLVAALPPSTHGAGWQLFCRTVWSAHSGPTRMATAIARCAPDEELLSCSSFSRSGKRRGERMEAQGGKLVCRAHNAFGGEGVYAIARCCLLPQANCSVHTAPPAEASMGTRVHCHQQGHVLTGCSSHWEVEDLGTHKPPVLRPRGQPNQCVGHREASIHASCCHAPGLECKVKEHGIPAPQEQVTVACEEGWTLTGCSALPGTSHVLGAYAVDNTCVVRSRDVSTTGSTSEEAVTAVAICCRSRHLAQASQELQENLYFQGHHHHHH
For test [6], the target named is T3, PCSK9. Briefly: cell-based.
Target sequence in this assay (Q8NBP7 31-152): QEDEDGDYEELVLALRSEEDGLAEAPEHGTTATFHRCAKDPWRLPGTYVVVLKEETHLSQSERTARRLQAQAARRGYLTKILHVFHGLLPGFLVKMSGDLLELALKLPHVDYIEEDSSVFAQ
Target sequence in this assay (Q8NBP7 153-692 V474I/G670E): as the sequence (Q8NBP7 153-692) above, with V322I, G518E counted along it

T2 sequence (Q12809 whole entry): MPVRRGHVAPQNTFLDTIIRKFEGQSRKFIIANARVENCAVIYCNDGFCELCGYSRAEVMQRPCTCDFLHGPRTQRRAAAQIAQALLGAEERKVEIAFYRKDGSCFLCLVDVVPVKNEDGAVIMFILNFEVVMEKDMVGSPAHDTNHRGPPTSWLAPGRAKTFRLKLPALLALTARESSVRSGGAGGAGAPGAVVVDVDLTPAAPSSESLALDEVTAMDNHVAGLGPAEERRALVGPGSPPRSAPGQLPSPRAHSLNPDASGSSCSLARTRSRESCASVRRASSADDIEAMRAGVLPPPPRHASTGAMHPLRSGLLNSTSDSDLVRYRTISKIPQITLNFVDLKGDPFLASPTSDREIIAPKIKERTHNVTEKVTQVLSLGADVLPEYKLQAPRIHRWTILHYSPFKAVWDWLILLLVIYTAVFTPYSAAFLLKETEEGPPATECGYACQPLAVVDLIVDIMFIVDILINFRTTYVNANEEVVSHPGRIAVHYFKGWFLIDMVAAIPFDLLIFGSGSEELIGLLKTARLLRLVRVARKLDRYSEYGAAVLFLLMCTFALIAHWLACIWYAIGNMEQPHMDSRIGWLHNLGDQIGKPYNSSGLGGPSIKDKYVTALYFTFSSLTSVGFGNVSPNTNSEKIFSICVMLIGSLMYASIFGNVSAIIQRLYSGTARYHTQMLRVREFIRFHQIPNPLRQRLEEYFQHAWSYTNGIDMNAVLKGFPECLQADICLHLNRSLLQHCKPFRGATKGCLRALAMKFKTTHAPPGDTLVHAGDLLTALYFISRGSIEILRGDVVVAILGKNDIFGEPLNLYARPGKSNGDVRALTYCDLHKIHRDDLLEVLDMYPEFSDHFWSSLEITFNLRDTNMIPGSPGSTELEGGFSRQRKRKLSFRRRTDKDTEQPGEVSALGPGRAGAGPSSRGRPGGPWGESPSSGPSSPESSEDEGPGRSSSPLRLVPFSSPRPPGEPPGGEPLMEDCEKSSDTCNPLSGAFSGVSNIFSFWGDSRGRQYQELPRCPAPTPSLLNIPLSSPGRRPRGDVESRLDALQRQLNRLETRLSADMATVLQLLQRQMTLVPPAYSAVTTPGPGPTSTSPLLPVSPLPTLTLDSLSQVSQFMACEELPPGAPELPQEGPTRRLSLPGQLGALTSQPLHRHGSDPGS

With alirocumab, the “decrease in LDL levels” value in test [1] is listed as “about 50%”.
In the case of `N#Cc1cccn(-c2ccc(N[C@H]3CC[C@H](Nc4nc5cccnc5o4)C3)nc2)c1=O` [Example 15, 6′-(((1S,3S)-3-(Oxazolo[5,4-b]pyridin-2-ylamino)cyclopentyl)amino)-2-oxo-2H-[1,3′-bipyridine]-3-carbonitrile], the IC50 (in general, the concentration that gives 50% inhibition) in test [2] is over 40000 nM; in test [4], over 10 µM; in test [5], 3.1 nM; in test [6], 76 nM. Moreover, the Kd – broadly, the free concentration of one partner at which half of the binding sites on the other are occupied at equilibrium, for simple one-to-one binding – in test [3] turned out to be 3 nM.
For `O=c1c2sccc2ccn1-c1ccc(N[C@H]2CC[C@H](Nc3nc4cccnc4s3)C2)nc1` [Example 76, 6-(6-(((1S,3S)-3-(Thiazolo[5,4-b]pyridin-2-ylamino)cyclopentyl)amino)pyridin-3-yl)thieno[2,3-c]pyridin-7(6H)-one], the concentration for half-maximal inhibition (IC50) in test [2] was 2570 nM; in test [4], over 10 µM; in test [5] it was 0.4 nM; in test [6] it was 55 nM. Further, the Kd in test [3] turned out to be 0.1 nM.
In the same order, the values of `O=C(O)c1ccc(=O)n(-c2ccc(N[C@H]3CC[C@H](Nc4nc5cccnc5[nH]4)C3)nc2)c1` [Example 44, 6′-(((1S,3S)-3-((3H-Imidazo[4,5-b]pyridin-2-yl)amino)cyclopentyl)amino)-2-oxo-2H-[1,3′-bipyridine]-5-carboxylic acid] are over 40000 nM, 7.91 µM, 4.1 nM, 82 nM and 4 nM.
The like results for `Cn1ccc(=O)n(-c2ccc(N[C@H]3CC[C@H](Nc4nc5cccnc5s4)C3)nc2)c1=O` [Example 82, 1-Methyl-3-(6-(((1S,3S)-3-(thiazolo[5,4-b]pyridin-2-ylamino)cyclopentyl)amino)pyridin-3-yl)pyrimidine-2,4(1H,3H)-dione] were, in that order, over 40100 nM, over 10 µM, 2.3 nM, 124 nM and 1 nM.
The like results for `O=c1ccccn1-c1ccc(N[C@H]2CC[C@H](Nc3nc4c(Br)ccnc4[nH]3)C2)nc1` [Example 73, 6′-(((1S,3S)-3-((7-Bromo-3H-imidazo[4,5-b]pyridin-2-yl)amino)cyclopentyl)amino)-2H-[1,3′-bipyridin]-2-one] were, in that order, over 40000 nM, 0.192 µM, 4.7 nM, 280 nM and 5 nM.
As to `O=c1[nH]c2ccsc2c(=O)n1-c1ccc(N[C@H]2CC[C@H](Nc3nc4cccnc4s3)C2)nc1` [Example 83, 3-(6-(((1S,3S)-3-(Thiazolo[5,4-b]pyridin-2-ylamino)cyclopentyl)amino)pyridin-3-yl)thieno[3,2-d]pyrimidine-2,4(1H,3H)-dione], the 50% inhibitory concentration (IC50) in test [2] was over 40100 nM; in test [4], over 10 µM; in test [5] it was 0.5 nM; in test [6], 79 nM. In test [3], the Kd stood at 0.1 nM.
In the same order, the values of `O=c1c(Cl)cccn1-c1ccc(N[C@H]2CC[C@H](Nc3nc4cccnc4s3)C2)nc1` [Example 24, 3-Chloro-6′-(((1S,3S)-3-(thiazolo[5,4-b]pyridin-2-ylamino)cyclopentyl)amino)-2H-[1,3′-bipyridin]-2-one] are 13900 nM, over 10 µM, 0.7 nM, 76 nM and 0.1 nM.
The like results for `Cn1c(=O)n(-c2ccc(N[C@H]3CC[C@H](Nc4nc5cccnc5o4)C3)nc2)c2ncccc21` [Example 18, 1-Methyl-3-(6-(((1S,3S)-3-(oxazolo[5,4-b]pyridin-2-ylamino)cyclopentyl)amino)pyridin-3-yl)-1,3-dihydro-2H-imidazo[4,5-b]pyridin-2-one] were, in that order, over 40000 nM, over 10 µM, 2.3 nM, 52 nM and 3 nM.
In the same order, the values of `COc1cccn(-c2ccc(N[C@H]3CC[C@H](Nc4nc5cccnc5o4)C3)nc2)c1=O` [Example 12, 3-Methoxy-6′-(((1S,3S)-3-(oxazolo[5,4-b]pyridin-2-ylamino)cyclopentyl)amino)-2H-[1,3′-bipyridin]-2-one] are over 40000 nM, over 10 µM, 3.5 nM, 158 nM and 3 nM.

Values taken from US20240239767A1 (AstraZeneca AB, priority 2022, published 2024).
